In patent US20070093520A1, “Method of treatment of diarrhea-predominant irritable bowel syndrome in a subject” (priority 2005, published 2007):

System: diarrhea-predominant IBS subjects
Experiment: 3007 Study: open-label 52-week safety study, adverse events and withdrawals
[1] = Cilansetron 2 mg/Cilansetron 2 mg

Cc1nccn1C[C@H]1CCc2c(c3cccc4c3n2CCC4)C1=O [cilansetron, (R)-(−)-4,5,6,8,9,10-hexahydro-10-[(2-methyl-1H-imidazol-1-yl)methyl]-11H-pyrido-[3,2,1-jk]-carbazol-11-one]
TEAE: Vulvovaginal Signs and Symptoms* (C/C group): 1 (<1%) n (%)
TEAE: Wheezing (C/C group): 1 (<1%) n (%)
TEAE: Abdominal Discomfort [1]: 1 (<1%) n (%)
TEAE: Abdominal Distension [1]: 9 (4%) n (%)
TEAE: Abdominal Pain Aggravated [1]: 4 (2%) n (%)
TEAE: Abdominal Pain Lower [1]: 4 (2%) n (%)
TEAE: Abdominal Pain NOS [1]: 14 (5%) n (%)
TEAE: Abdominal Pain Upper [1]: 7 (3%) n (%)
TEAE: Abdominal Rebound Tenderness [1]: 1 (<1%) n (%)
TEAE: Abdominal Tenderness [1]: 9 (4%) n (%)
TEAE: Abnormal Reflexes [1]: 1 (<1%) n (%)
TEAE: Alanine Aminotransferase Increased [1]: 8 (3%) n (%)
TEAE: Anal and Rectal Disorders NEC [1]: 0 n (%)
TEAE: Anal and Rectal Pains [1]: 0 n (%)
TEAE: Anal and Rectal Signs and Symptoms [1]: 1 (<1%) n (%)
TEAE: Animal Bite [1]: 0 n (%)
TEAE: Appendicitis [1]: 1 (<1%) n (%)
TEAE: Arthralgia [1]: 10 (4%) n (%)
TEAE: Arthritis NOS [1]: 3 (1%) n (%)
TEAE: Arthritis NOS Aggravated [1]: 1 (<1%) n (%)
TEAE: Arthropathies NEC [1]: 5 (2%) n (%)
TEAE: Arthropod Bite [1]: 1 (<1%) n (%)
TEAE: Arthropod Sting [1]: 0 n (%)
TEAE: Aspartate Aminotransferase Increased [1]: 4 (2%) n (%)
TEAE: Back Injury NOS [1]: 3 (1%) n (%)
TEAE: Back Pain [1]: 12 (5%) n (%)
TEAE: Back Pain Aggravated [1]: 2 (<1%) n (%)
TEAE: Bacteria Identification and Serology (Excl Mycobacteria) [1]: 1 (<1%) n (%)
TEAE: Bilirubin Urine [1]: 1 (<1%) n (%)
TEAE: Bladder Infection NOS [1]: 0 n (%)
TEAE: Blood Alkaline Phosphatase NOS Increased [1]: 2 (<1%) n (%)
TEAE: Blood Bilirubin Increased [1]: 2 (<1%) n (%)
TEAE: Blood Cholesterol Increased [1]: 11 (4%) n (%)
TEAE: Blood Creatine Phosphokinase Increased [1]: 19 (7%) n (%)
TEAE: Blood Creatine Phosphokinase Mb Increased [1]: 1 (<1%) n (%)
TEAE: Blood Creatinine Increased [1]: 1 (<1%) n (%)
TEAE: Blood Glucose Increased [1]: 2 (<1%) n (%)
TEAE: Blood Potassium Increased [1]: 1 (<1%) n (%)
TEAE: Blood Pressure Increased [1]: 3 (1%) n (%)
TEAE: Blood Sodium Increased [1]: 1 (<1%) n (%)
TEAE: Blood Triglycerides Increased [1]: 6 (2%) n (%)
TEAE: Blood Uric Acid Increased [1]: 2 (<1%) n (%)
TEAE: Blood Urine Present [1]: 6 (2%) n (%)
TEAE: Blood in Stool [1]: 4 (2%) n (%)
TEAE: Bone Density Decreased [1]: 0 n (%)
TEAE: Bone Disorder NOS [1]: 1 (<1%) n (%)
TEAE: Bone Disorders NEC [1]: 1 (<1%) n (%)
TEAE: Bone Injury [1]: 1 (<1%) n (%)
TEAE: Bone Spur [1]: 0 n (%)
TEAE: Bronchitis Acute NOS [1]: 2 (<1%) n (%)
TEAE: Bronchitis NOS [1]: 18 (7%) n (%)
TEAE: Bronchopneumonia NOS [1]: 0 n (%)
TEAE: Bunion [1]: 2 (<1%) n (%)
TEAE: Bursal Disorders [1]: 3 (1%) n (%)
TEAE: Bursitis [1]: 1 (<1%) n (%)
TEAE: Candida Infections [1]: 2 (<1%) n (%)
TEAE: Candidal Infection NOS [1]: 1 (<1%) n (%)
TEAE: Carbohydrate Tolerance Analyses (Incl Diabetes) [1]: 2 (<1%) n (%)
TEAE: Cardiac Auscultatory Investigations [1]: 1 (<1%) n (%)
TEAE: Cardiac Murmur NOS [1]: 1 (<1%) n (%)
TEAE: Carotid Bruit [1]: 0 n (%)
TEAE: Carpal Tunnel Syndrome [1]: 2 (<1%) n (%)
TEAE: Cartilage Disorder NOS [1]: 1 (<1%) n (%)
TEAE: Cartilage Disorders [1]: 1 (<1%) n (%)
TEAE: Cellulitis [1]: 0 n (%)
TEAE: Cervical Spasm [1]: 1 (<1%) n (%)
TEAE: Change in Bowel Habit NOS [1]: 0 n (%)
TEAE: Chapped Lips [1]: 0 n (%)
TEAE: Chest Wall Pain [1]: 0 n (%)
TEAE: Cholesterol Analyses [1]: 11 (4%) n (%)
TEAE: Colitis (Excl Infective) [1]: 0 n (%)
TEAE: Colitis Ischaemic [1]: 0 n (%)
TEAE: Colonic Polyp [1]: 1 (<1%) n (%)
TEAE: Connective Tissue Disorders (Excl Le) [1]: 2 (<1%) n (%)
TEAE: Constipation [1]: 66 (26%) n (%)
TEAE: Cystitis NOS [1]: 1 (<1%) n (%)
TEAE: Dental Disorders NEC [1]: 1 (<1%) n (%)
TEAE: Dental Infections - Pathogen Class Unspecified [1]: 9 (4%) n (%)
TEAE: Dental Pain and Sensation Disorders [1]: 2 (<1%) n (%)
TEAE: Diaphragmatic Hernias [1]: 2 (<1%) n (%)
TEAE: Diarrhoea (Excl Infective) [1]: 24 (9%) n (%)
TEAE: Diarrhoea Aggravated [1]: 3 (1%) n (%)
TEAE: Diarrhoea Haemorrhagic [1]: 0 n (%)
TEAE: Diarrhoea NOS [1]: 22 (9%) n (%)
TEAE: Disturbances in Consciousness NEC [1]: 3 (1%) n (%)
TEAE: Diverticulitis NOS [1]: 1 (<1%) n (%)
TEAE: Diverticulum Inflammations [1]: 1 (<1%) n (%)
TEAE: Dizziness [1]: 4 (2%) n (%)
TEAE: Dry Mouth [1]: 1 (<1%) n (%)
TEAE: Dysarthria [1]: 0 n (%)
TEAE: Dyskinesias and Movement Disorders NEC [1]: 0 n (%)
TEAE: Dyspepsia [1]: 6 (2%) n (%)
TEAE: Dyspepsia Aggravated [1]: 2 (<1%) n (%)
TEAE: Dyspeptic Signs and Symptoms [1]: 10 (4%) n (%)
TEAE: ECG Investigations [1]: 1 (<1%) n (%)
TEAE: Ear Infection NOS [1]: 2 (<1%) n (%)
TEAE: Ear Infections [1]: 2 (<1%) n (%)
TEAE: Electrocardiogram Qrs Complex Abnormal [1]: 1 (<1%) n (%)
TEAE: Electrocardiogram T Wave Inversion [1]: 0 n (%)
TEAE: Enteritis [1]: 0 n (%)
TEAE: Epigastric Discomfort [1]: 0 n (%)
TEAE: Eructation [1]: 2 (<1%) n (%)
TEAE: Eye Injuries NEC [1]: 1 (<1%) n (%)
TEAE: Faecal Abnormality NOS [1]: 1 (<1%) n (%)
TEAE: Faecal Impaction [1]: 0 n (%)
TEAE: Faecal Incontinence [1]: 1 (<1%) n (%)
TEAE: Faecal Occult Blood Positive [1]: 23 (9%) n (%)
TEAE: Faeces Abnormal [1]: 2 (<1%) n (%)
TEAE: Faeces Hard [1]: 1 (<1%) n (%)
TEAE: Fibromyalgia [1]: 1 (<1%) n (%)
TEAE: Flatulence [1]: 16 (6%) n (%)
TEAE: Flatulence, Bloating and Distension [1]: 23 (9%) n (%)
TEAE: Food Poisoning NOS [1]: 1 (<1%) n (%)
TEAE: Foot Fracture [1]: 1 (<1%) n (%)
TEAE: Fractures and Dislocations NEC [1]: 1 (<1%) n (%)
TEAE: Frequent Bowel Movements [1]: 1 (<1%) n (%)
TEAE: Fungal Infection NOS [1]: 2 (<1%) n (%)
TEAE: Fungal Infections NEC [1]: 4 (2%) n (%)
TEAE: Gamma-Glutamyltransferase Increased [1]: 5 (2%) n (%)
TEAE: Gastric Irritation [1]: 1 (<1%) n (%)
TEAE: Gastritis (Excl Infective) [1]: 3 (1%) n (%)
TEAE: Gastritis NOS [1]: 3 (1%) n (%)
TEAE: Gastroenteritis NOS [1]: 4 (2%) n (%)
TEAE: Gastroenteritis Viral NOS [1]: 5 (2%) n (%)
TEAE: Gastrointestinal Atonic and Hypomotility Disorders NEC [1]: 70 (27%) n (%)
TEAE: Gastrointestinal Disorders [1]: 134 (52%) n (%)
TEAE: Gastrointestinal Disorders NEC [1]: 1 (<1%) n (%)
TEAE: Gastrointestinal Dyskinetic Disorders [1]: 2 (<1%) n (%)
TEAE: Gastrointestinal Histopathology Procedures [1]: 25 (10%) n (%)
TEAE: Gastrointestinal Infections - Pathogen Class Unspecified [1]: 4 (2%) n (%)
TEAE: Gastrointestinal Inflammatory Disorders NEC [1]: 1 (<1%) n (%)
TEAE: Gastrointestinal Motility Disorder NOS [1]: 2 (<1%) n (%)
TEAE: Gastrointestinal Mucosal Dystrophies and Secretion Disorders [1]: 1 (<1%) n (%)
TEAE: Gastrointestinal Signs and Symptoms NEC [1]: 2 (<1%) n (%)
TEAE: Gastrointestinal Spastic and Hypermotility Disorders [1]: 5 (2%) n (%)
TEAE: Gastrointestinal and Abdominal Pains (Excl Oral and Throat) [1]: 36 (14%) n (%)
TEAE: Gingival Abscess [1]: 2 (<1%) n (%)
TEAE: Gingival Atrophy [1]: 1 (<1%) n (%)
TEAE: Gingival Disorders NEC [1]: 1 (<1%) n (%)
TEAE: Gingival Pain [1]: 1 (<1%) n (%)
TEAE: Gingival Pains [1]: 1 (<1%) n (%)
TEAE: Gingivitis [1]: 0 n (%)
TEAE: Gingivitis Infection NOS [1]: 1 (<1%) n (%)
TEAE: Glucose Urine Present [1]: 1 (<1%) n (%)
TEAE: Groin Pain [1]: 1 (<1%) n (%)
TEAE: Haematocrit Decreased [1]: 1 (<1%) n (%)
TEAE: Haemoglobin Decreased [1]: 1 (<1%) n (%)
TEAE: Haemorrhoidal Haemorrhage [1]: 2 (<1%) n (%)
TEAE: Haemorrhoids [1]: 4 (2%) n (%)
TEAE: Haemorrhoids Aggravated [1]: 0 n (%)
TEAE: Haemorrhoids and Gastrointestinal Varices (Excl Oesophageal) [1]: 6 (2%) n (%)
TEAE: Halitosis [1]: 1 (<1%) n (%)
TEAE: Headache NOS [1]: 19 (7%) n (%)
TEAE: Headache NOS Aggravated [1]: 3 (1%) n (%)
TEAE: Headaches NEC [1]: 25 (10%) n (%)
TEAE: Heart Rate Increased [1]: 1 (<1%) n (%)
TEAE: Heart Rate and Pulse Investigations [1]: 1 (<1%) n (%)
TEAE: Heat Exhaustion [1]: 1 (<1%) n (%)
TEAE: Heat Injuries (Excl Thermal Burns) [1]: 1 (<1%) n (%)
TEAE: Helicobacter Pylori Antibody Positive [1]: 1 (<1%) n (%)
TEAE: Herpes Simplex [1]: 2 (<1%) n (%)
TEAE: Herpes Simplex Aggravated [1]: 1 (<1%) n (%)
TEAE: Herpes Viral Infections [1]: 3 (1%) n (%)
TEAE: Herpes Zoster [1]: 0 n (%)
TEAE: Hiatus Hernia [1]: 2 (<1%) n (%)
TEAE: Hyperreflexia [1]: 1 (<1%) n (%)
TEAE: Hypoaesthesia [1]: 1 (<1%) n (%)
TEAE: Infected Varicose Vein [1]: 1 (<1%) n (%)
TEAE: Infections NEC [1]: 3 (1%) n (%)
